Measured values reported in patent US8088412B2, “Intralymphatic chemotherapy drug carriers” (priority 2008, dated 2012).
Read-outs that look alike come from different tables or passages of the source. Marks after values point to notes of the source that are not given here.

Key:
MCF7 = experiment: In vitro cell toxicity (DMEM, resazurin blue, 72 hrs); format: cell-based, human
Protocol: (§1) Cell lines were seeded into 96-well plates (5000 cells/well) in DMEM medium supplemented with 5% FBS and 1% penicillin/streptomycin.

MDA-MB-231 = experiment: as above; format: cell-based, human
Protocol: as §1

[1] = Tissue distribution after subcutaneous cisplatin or cisplatin-HA into right mammary fat pad; format: in vivo, Sprague-Dawley rats
Protocol: Animals were allowed to recover with access to food and water. […] Organs and tissues were washed with 0.9% saline and frozen (−80° C.) until analysis. Plasma was separated by centrifugation from whole blood and frozen (−80° C.).
In vitro release samples (n=3) and plasma samples (n=5) were diluted 200-fold and 10-fold, respectively, with 0.1% nitric acid for analysis. […] Lymph nodes were processed similarly using 10 mg of tissue. After digestion, samples were homogenized (Tissue Tearor, BioSpec Products Inc., Bartlesville, Okla.). All samples were centrifuged (17 000×g, 20 min), and the supernate used for analysis.
Analysis was performed on a Varian SpectrAA GTA-110 with graphite furnace and partition tubes. Samples (21 μL) were injected using the autosampler, followed by 19 μL of 0.1% nitric acid. […] The furnace program was as follows: ramp 25 to 80° C., hold 2 s, ramp to 120° C., hold 10 s, ramp to 1000° C., hold 5 s, ramp to 2700° C., hold 2 s, cool to 25° C. over 20 s. The graphite partition tube was cleaned every 40 samples by baking at 2800° C. for 7 s. Argon was used as the injection and carrier gas.

MDA-MB-468LN = experiment: Cell proliferation over 72 hrs, resazurin blue; format: cell-based, human
Protocol: Preceding proliferation studies, cells were trypsinized and seeded into 96-well plates (5,000 cells/well). […] After 4 hrs, well fluorescence was measured (λex 560 nm, λem 590 nm) using a fluorophotometer (SpectraMax Gemini; Molecular Devices, Sunnyvale, Calif.). IC50 was determined as the midpoint between saline (positive) and cell-free (negative) controls for each plate.

MDA-1986 cells = experiment: In vivo efficacy of HA-cisplatin, orthotopic HNSCC model; design: species or system Nu/Nu female athymic nude mice; conditions: intravenous, weekly dose of 3.3 mg/kg for 3 weeks; 3 mice
From the text: The in vivo efficacy of HA-cisplatin was studied. All treatment began once animal HNSCC tumors reached 100 mm3 volume. Treatment commenced for 3 weeks. All animals were given 5×10^5 MDA-1986 cells in the buccal mucosa of the left cheek (which is a novel orthotopic HNSCC model I developed this year) and tumors develop in 2-3 weeks.

MDA-MB-468LN tumor cells = experiment: Efficacy of HA-doxorubicin vs intravenous doxorubicin, breast tumor xenograft; format: in vivo, nude mice; conditions: 6 weeks post-implantation; in saline via the tail vein, doses at 3 and 5 weeks
Protocol: Nude nu/nu mice were implanted with 1×10^6 cells (MDA-MB-468LN human breast cancer cells) into the mammary fatpad, after approximately 4 weeks a 100-200 mm^3 tumor had developed in the axillary lymph node package. Animals were randomly divided into four treatment groups of five animals each: intravenous saline, s.q. HA, intravenous cisplatin, or s.q. HA-cisplatin. At this point, doses were administered to the animals. In the HA-cisplatin and the HA groups, HA-cisplatin (3.3 mg/kg based on Pt-content) or HA (3.3 mg/kg) was dissolved in 100 mcL saline was injected subcutaneously peritumorally. […] In all study groups, a second dose was administered after 1 week. Tumor volumes were measured weekly using calipers and the formula: Volume=0.52×(width^2*length). Animals were euthanized when the tumor volume exceeded […] or the body score index fell below 2.
To evaluate the efficacy of HA-doxorubicin conjugates injected subcutaneously in the […] compared with intravenous doxorubicin, the following experiment was performed. MDA-MB-468LN tumor cells into nude mice as described in [128] and divided into four groups of five animals each. After 3 weeks, HA-DOX was injected peritumorally at 3.3 mg/kg (DOX basis), DOX was injected in saline via the tail vein, HA was injected peritumorally, and saline was injected via the tail vein. […]

In the case of N.N.[Cl][Pt][Cl] [Cisplatin, cis-diamminedichloroplatinum, reference compound], the IC50 (MCF7; MCF-7, cisplatin basis) is reported as 7 µg/mL, the IC50 (MCF7; MCF-7, read-out: IC50) is reported as 23 µM and the IC50 (MDA-MB-231; cisplatin basis) is reported as 4 µg/mL. For the same compound, the IC50 (MDA-MB-231; cisplatin basis, listed as cisplatin) was 7 µg/mL, the IC50 (MDA-MB-231; read-out: IC50) was 13 µM and the “AUC (0-96 hrs)” value ([1]; Bladder, subcutaneous into right mammary fatpad of female rats) was 208.5 µg·h/g. For the same compound, the “AUC (0-96 hrs)” value ([1]; Brain, subcutaneous into right mammary fatpad) was 442.5 µg·h/g, the “AUC (0-96 hrs)” value ([1]; Heart, subcutaneous into right mammary fatpad) was 459.0 µg·h/g and the “AUC (0-96 hrs)” value ([1]; Kidneys, subcutaneous into right mammary fatpad) was 650.9 µg·h/g. The “AUC (0-96 hrs)” value ([1]; Left lymph node (LLN), subcutaneous into right mammary fatpad) was 349.5 µg·h/g, the “AUC (0-96 hrs)” value ([1]; Liver, subcutaneous into right mammary fatpad) was 415.6 µg·h/g and the “AUC (0-96 hrs)” value ([1]; Lungs, subcutaneous into right mammary fatpad) was 409.8 µg·h/g. The “AUC (0-96 hrs)” value ([1]; Muscle, subcutaneous into right mammary fatpad) was 371.5 µg·h/g, the “AUC (0-96 hrs)” value ([1]; Plasma, subcutaneous into right mammary fatpad) was 174.1 µg·h/g and the “AUC (0-96 hrs)” value ([1]; Right lymph node (RLN), subcutaneous into right mammary fatpad, p < 0.05) was 446.0 ^† μg · hr/g. For the same compound, the “AUC (0-96 hrs)” value ([1]; Spleen, subcutaneous into right mammary fatpad) was 349.1 µg·h/g, the “serum Cmax” value ([1]; intravenous (as worded in legend of FIG. 10B)) was “over 4 micrograms/mL” and the IC50 (MDA-MB-468LN; HA carriers on a Pt-basis equivalent to cisplatin) was 5 µg/mL. The IC50 (MDA-MB-468LN; Pt-basis, read-out: IC50) was 17 µM and the tumor growth delay (MDA-1986 cells) was “about 3 weeks”.

For COc1cccc2c1C(=O)c1c(O)c3c(c(O)c1C2=O)C[C@@](O)(C(=O)CO)C[C@@H]3O[C@H]1C[C@H](N)[C@H](O)[C@H](C)O1 [DOX, doxorubicin], the tumor volume (MDA-MB-468LN tumor cells) was “greater than 300 mm^3”.
